Experimental data from PubChem BioAssay AID1259411 (Chemical Carcinogenesis Research Information System (CCRIS), 2018).
Active and inactive are the calls of the source. How the calls were made is not given here.

Tested on: rodent carcinogenicity bioassays, tumor incidence
Assay: CCRIS carcinogenicity studies
Procedure, shortened: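 Archive of carcinogenicity, mutagenicity, tumor promotion and tumor inhibition results drawn from journals, NCI reports and other sources, expert-reviewed; covers 1985-2011 and is no longer updated.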

Measured: carcinogen call

C=CCl
inactive: Species: RAT, Strain/Sex: SPRAGUE-DAWLEY/FEMALE, Route: GAVAGE, Dose: 0, 0.03, 0.3, 1, 3.33, 16.65, 50 MG/KG BW IN OLIVE OIL 1/D 4-5 D/WK FOR 52-59 WK (STUDY DURATION: LIFETIME), Dose: 0, 0.03, 0.3, 1, 3.33, 16.65, 50 MG/KG BW IN OLIVE OIL 1/D 4-5 D/WK FOR 52-59 WK (STUDY DURATION: LIFETIME), Tumor Site: Type of Lesion: [BRAIN WAS ONLY SITE EVALUATED] inactive; negative | Species: RAT, Strain/Sex: SPRAGUE-DAWLEY/FEMALE, Route: INHALATION, Dose: 0, 6000, 10000 PPM IN AIR 1 HR/D 4 D/WK FOR 25 WK (STUDY DURATION: LIFETIME), Dose: 0, 6000, 10000 PPM IN AIR 1 HR/D 4 D/WK FOR 25 WK (STUDY DURATION: LIFETIME), Tumor Site: Type of Lesion: [BRAIN WAS ONLY SITE EVALUATED] inactive; negative
active: Species: HAMSTER, Strain/Sex: SYRIAN/MALE, Route: INHALATION, Dose: 0, 50, 250, 500, 2500, 6000, 10000 PPM 4 HR/D, 5 D/WK FOR (STUDY DURATION: 109 WK), Dose: 0, 50, 250, 500, 2500, 6000, 10000 PPM 4 HR/D, 5 D/WK FOR (STUDY DURATION: 109 WK), Tumor Site: Type of Lesion: INTEGUMENTARY SYSTEM (SKIN): EPITHELIOMA, FORESTOMACH: PAPILLOMA OR ACANTHOMA, LIVER: ANGIOMA OR ANGIOSARCOMA, Tumor Site: Type of Lesion: INTEGUMENTARY SYSTEM (SKIN): EPITHELIOMA, FORESTOMACH: PAPILLOMA OR ACANTHOMA, LIVER: ANGIOMA OR ANGIOSARCOMA active; positive | Species: HAMSTER, Strain/Sex: SYRIAN, Route: INHALATION, Tumor Site: Type of Lesion: LIVER active; positive | Species: HUMAN, Route: INHALATION, Tumor Site: Type of Lesion: LIVER, BRAIN, LUNG, Tumor Site: Type of Lesion: LIVER, BRAIN, LUNG active; positive | Species: MOUSE, Strain/Sex: ICR/FEMALE, Route: INHALATION, Dose: 0, 50, 500, 5000, 50000 PPM ONCE FOR 1 HR (STUDY DURATION: 18 MO), Dose: 0, 50, 500, 5000, 50000 PPM ONCE FOR 1 HR (STUDY DURATION: 18 MO), Tumor Site: Type of Lesion: LUNG: ALVEOLAR/BRONCHIOLAR ADENOMA OR CARCINOMA active; positive | Species: MOUSE, Strain/Sex: ICR/MALE, Route: INHALATION, Dose: 0, 50, 500, 5000, 50000 PPM ONCE FOR 1 HR (STUDY DURATION: 18 MO), Dose: 0, 50, 500, 5000, 50000 PPM ONCE FOR 1 HR (STUDY DURATION: 18 MO), Tumor Site: Type of Lesion: LUNG: ALVEOLAR/BRONCHIOLAR ADENOMA OR CARCINOMA active; positive | Species: MOUSE, Strain/Sex: SWISS/MALE,FEMALE, Route: INHALATION, Dose: 0, 50, 250, 500, 2500, 6000, 10000 PPM 4 HR/D, 5 D/WK FOR 30 WK (STUDY DURATION: 81 WK), Dose: 0, 50, 250, 500, 2500, 6000, 10000 PPM 4 HR/D, 5 D/WK FOR 30 WK (STUDY DURATION: 81 WK), Tumor Site: Type of Lesion: LIVER: ANGIOMA, ANGIOSARCOMA, LUNG: TUMOR (NOS), MAMMARY GLAND: CARCINOMA, Tumor Site: Type of Lesion: LIVER: ANGIOMA, ANGIOSARCOMA, LUNG: TUMOR (NOS), MAMMARY GLAND: CARCINOMA active; positive | Species: MOUSE, Strain/Sex: SWISS, Route: INHALATION, Tumor Site: Type of Lesion: LIVER, LUNG, MAMMARY GLAND, Tumor Site: Type of Lesion: LIVER, LUNG, MAMMARY GLAND active; positive | Species: RAT, Route: INHALATION, Tumor Site: Type of Lesion: LIVER, LUNG, KIDNEY, EAR (ZYMBAL GLAND), Tumor Site: Type of Lesion: LIVER, LUNG, KIDNEY, EAR (ZYMBAL GLAND) active; positive | Species: RAT, Strain/Sex: SPRAGUE-DAWLEY/FEMALE, Route: INHALATION, Dose: 0, 50, 250, 500, 2500, 6000, 10000 PPM IN AIR 4 HR/D 5 D/WK FOR 17 WK (STUDY DURATION: LIFETIME), Dose: 0, 50, 250, 500, 2500, 6000, 10000 PPM IN AIR 4 HR/D 5 D/WK FOR 17 WK (STUDY DURATION: LIFETIME), Tumor Site: Type of Lesion: BRAIN: NEUROBLASTOMA [ONLY SITE EVALUATED] active; positive | Species: RAT, Strain/Sex: SPRAGUE-DAWLEY/FEMALE, Route: INHALATION, Dose: 0, 2500 PPM 4 HR/D 5 D/WK FOR 7 WK THEN 7 HR/D 5 D/WK FOR 8 WK ADMINISTERED TO RAT EMBRYOS BEGINNING ON 12TH DAY OF GEST, Tumor Site: Type of Lesion: LIVER: HEPATOMA, ANGIOSARCOMA, BRAIN: NEUROBLASTOMA active; positive | Species: RAT, Strain/Sex: SPRAGUE-DAWLEY/FEMALE, Route: INHALATION, Dose: 0, 2500 PPM 4 HR/D 5 D/WK FOR 7 WK THEN 7 HR/D 5 D/WK FOR 69 WK ADMINISTERED TO BREEDER RATS (STUDY DURATION: 76 WK), Tumor Site: Type of Lesion: BRAIN: NEUROBLASTOMA, LIVER, HEPATOCARCINOMA, ANGIOSARCOMA, Tumor Site: Type of Lesion: BRAIN: NEUROBLASTOMA, LIVER, HEPATOCARCINOMA, ANGIOSARCOMA active; positive | Species: RAT, Strain/Sex: SPRAGUE-DAWLEY/FEMALE, Route: INHALATION, Dose: 0, 2500 PPM 4 HR/D 5 D/WK FOR 7 WK THEN 7 HR/D 5 D/WK FOR 69 WK ADMINISTERED TO RAT EMBRYOS BEGINNING ON 12TH DAY OF GES, Tumor Site: Type of Lesion: BRAIN: NEUROBLASTOMA, LIVER, HEPATOCARCINOMA, ANGIOSARCOMA, Tumor Site: Type of Lesion: BRAIN: NEUROBLASTOMA, LIVER, HEPATOCARCINOMA, ANGIOSARCOMA active; positive
